Reference: patent publication US11767341B2, “Lincosamide antibiotics and uses thereof” (President and Fellows of Harvard College, priority 2017, dated 2023)
≈ marks a conversion by molar mass, not a printed value. Read-outs that look alike come from different tables or passages of the source.

Experiments:
Assay in all cases: MIC determination
Format in all cases: cell-based
[1] = tested on: S. aureus MP-549 msr(a) USA 300; conditions: Staphylococcus aureus, USA300, S. aureus MP-549 msr(a) USA 300
E. coli MP-9 ΔTolC = conditions: Escherichia coli
S. aureus ATCC 29213 = conditions: Staphylococcus aureus
S. aureus BAA 977 iErmA = conditions: Staphylococcus aureus, BAA977
E. coli ATCC 25922 = conditions: Escherichia coli
[2] = tested on: S. aureus MP-513 clinical cErm; conditions: Staphylococcus aureus
K. pneumoniae ATCC 10031 = conditions: Klebsiella pneumoniae, ATCC10031
P. aeruginosa ATCC 27853 = conditions: Pseudomonas aeruginosa, ATCC27853
S. pneumoniae ATCC 49619 = conditions: Streptococcus pneumoniae, ATCC49619; S. pneumoniae ATCC 49619; read-out: MIC
[3] = tested on: S. pneumoniae MMX 3028 cErmB; conditions: Streptococcus pneumoniae, MMX3028CERMB; S. pneumoniae MMX 3028 cErmB; read-out: MIC
[4] = tested on: S. pneumoniae UNT-039, MP-627, TP1517 (mefA); conditions: Streptococcus pneumoniae
[5] = tested on: E. coli MP-74 LptD mutant; conditions: Escherichia coli
E. faecalis ATCC 29212 = conditions: Enterococcus faecalis, ATCC29212, read-out: MIC
S. pyogenes ATCC 19615 = conditions: Streptococcus pyogenes, ATCC19615; S. pyogenes ATCC 19615; read-out: MIC
H. influenzae ATCC 49247 = conditions: Haemophilus influenzae, ATCC49247; H. influenzae ATCC 49247; read-out: MIC
[6] = tested on: S. pyogenes MMX 946 Macrolide-Resistant; conditions: Streptococcus pyogenes; S. pyogenes MMX 946 MacRes; read-out: MIC
[7] = ATCC29213, S. aureus ATCC 29213, read-out: MIC

Structure (SMILES)	MIC [1] [µg/mL]	MIC (E. coli MP-9 ΔTolC) [µg/mL]	MIC (S. aureus ATCC 29213; [7]) [µg/mL]	MIC (S. aureus BAA 977 iErmA) [µg/mL]	MIC (E. coli ATCC 25922; ATCC25922) [µg/mL]	MIC [2] [µg/mL]	MIC (K. pneumoniae ATCC 10031) [µg/mL]	MIC (P. aeruginosa ATCC 27853) [µg/mL]	MIC (S. aureus ATCC 29213; ATCC29213) [µg/mL]	MIC (S. pneumoniae ATCC 49619) [µg/mL]	MIC [3] [µg/mL]	MIC [4] [µg/mL]	MIC [5] [µg/mL]	MIC (E. faecalis ATCC 29212) [µg/mL]	MIC (S. pyogenes ATCC 19615) [µg/mL]	MIC (H. influenzae ATCC 49247) [µg/mL]	MIC [6] [µg/mL]	MIC (E. coli ATCC 25922; ATCC25922, E. coli ATCC 25922, read-out: MIC) [µg/mL]	MIC ([2]; S. aureus MP-513 clinical cErm, read-out: MIC) [µg/mL]	MIC (K. pneumoniae ATCC 10031; K. pneumoniae ATCC 10031, read-out: MIC) [µg/mL]
CCCN1CCO[C@@H]2[C@H](CN[C@@H]2C(=O)N[C@H]([C@H](C)Cl)[C@H]2OC(SC)[C@H](O)C(O)C2O)C1 (stereo partly shown) [FSA-503003]	2 (≈ 4.15 µM)	> 64	4 (≈ 8.3 µM)	4 (≈ 8.3 µM)	> 64	> 64	> 64	> 64												
CCNC(=O)N1CCO[C@@H]2[C@H](CN[C@@H]2C(=O)N[C@H]([C@H](C)Cl)[C@H]2OC(SC)[C@H](O)C(O)C2O)C1 (stereo partly shown) [FSA-503004]	> 64	> 64		> 64	> 64	> 64	> 64	> 64	> 64											
C=CCOC(=O)N1CCO[C@@H]2[C@H](CN[C@@H]2C(=O)N[C@H]([C@H](C)Cl)[C@H]2OC(SC)[C@H](O)[C@H](O)C2O)C1 (stereo partly shown) [FSA-503073]	32 (≈ 61.1 µM)	> 64	64 (≈ 122 µM)	64 (≈ 122 µM)	> 64	> 64	> 64	> 64												
CSC1O[C@H]([C@H](NC(=O)[C@H]2NC[C@@H]3CN(Cc4ccc(N)nc4)CCO[C@H]32)[C@H](C)Cl)C(O)[C@@H](O)[C@H]1O (stereo partly shown) [FSA-504050]	32 (≈ 58.6 µM)	> 64	32 (≈ 58.6 µM)	64 (≈ 117 µM)	> 64	> 64	> 64	> 64												
CSC1O[C@H]([C@H](NC(=O)[C@H]2NC[C@@H]3CN(Cc4ccnc(N)c4)CCO[C@H]32)[C@H](C)Cl)C(O)C(O)[C@H]1O (stereo partly shown) [FSA-504849]	8 (≈ 14.6 µM)	> 64	16 (≈ 29.3 µM)	32 (≈ 58.6 µM)	> 64	> 64	> 64	> 64												
CSC1O[C@H]([C@H](NC(=O)[C@H]2NC[C@@H]3C[C@@H](c4ccccc4F)CCO[C@H]32)[C@H](C)Cl)C(O)[C@@H](O)[C@H]1O (stereo partly shown) [FSA-511100]	0.25 (≈ 0.469 µM)	32 (≈ 60 µM)	0.25 (≈ 0.469 µM)	4 (≈ 7.5 µM)						0.125 (≈ 0.234 µM)	> 256	1 (≈ 1.88 µM)	16 (≈ 30 µM)	> 256	0.25 (≈ 0.469 µM)	64 (≈ 120 µM)	> 256	> 64	> 256	> 64
